This experiment addresses D(3) dopamine receptor (Rattus norvegicus, UniProt P19020).

Where a name gives a salt, the structure may show the parent alone.

Sequence of D(3) dopamine receptor (P19020 whole entry): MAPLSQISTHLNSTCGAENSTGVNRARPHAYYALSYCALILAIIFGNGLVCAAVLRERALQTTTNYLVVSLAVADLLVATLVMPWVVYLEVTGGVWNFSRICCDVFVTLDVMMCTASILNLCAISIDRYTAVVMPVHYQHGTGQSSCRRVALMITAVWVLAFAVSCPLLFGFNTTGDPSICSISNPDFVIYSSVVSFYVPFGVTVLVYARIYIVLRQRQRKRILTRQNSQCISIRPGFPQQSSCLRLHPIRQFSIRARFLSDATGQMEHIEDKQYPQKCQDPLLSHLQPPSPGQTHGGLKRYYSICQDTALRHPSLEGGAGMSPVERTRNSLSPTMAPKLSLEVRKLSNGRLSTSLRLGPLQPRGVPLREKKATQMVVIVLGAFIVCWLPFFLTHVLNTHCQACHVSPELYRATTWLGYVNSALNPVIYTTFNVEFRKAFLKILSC

The Ki is a dissociation constant, usually derived from enzyme kinetics or from competition with a known ligand. Take `CN1CCN(C2=Nc3cc(F)ccc3Cc3ccccc32)CC1`: the Ki was 255 nM. The result for `CCCN[C@@H]1CCc2c(OC)cccc2[C@@H]1C` reads 438 nM. The compound `CN1CCN(C2=Nc3ccccc3Cc3ccccc32)CC1` registered a Ki of 919 nM. The result for `OCCN1CCN(CCCN2c3ccccc3Sc3ccc(C(F)(F)F)cc32)CC1` [2-[4-[3-[2-(trifluoromethyl)phenothiazin-10-yl]propyl]piperazin-1-yl]ethanol;hydrochloride] reads 0.71 nM; that for `CCc1cc(Cl)c(OC)c(C(=O)NC[C@@H]2CCCN2CC)c1O` [3-Chloro-5-ethyl-N-((S)-1-ethyl-pyrrolidin-2-ylmethyl)-6-hydroxy-2-methoxy-benzamide], 0.23 nM. The same measure for `CN1CCc2cccc3c2[C@H]1Cc1ccc(O)c(O)c1-3` [APOKYN]: 43.9 nM; for `COc1cc(N)c(Cl)cc1C(=O)N[C@@H]1C[C@H]2CCC[C@@H](C1)N2Cc1ccc(F)cc1` [BRL-34778]: 0.28 nM.

`Cc1nc2n(c(=O)c1CCN1CCC(C(=O)c3ccc(F)cc3)CC1)CCS2` [CAS_86487-64-1] displayed a Ki of 106 nM. This Ki lies about 380-fold higher than the previous one. The same measure for `CCCN(CCC)C1C=Cc2c(OC)cccc2C1C` (stereo not given) [CAS_5311190]: 36.5 nM; for `O=C(O)c1ccccc1C(=O)Nc1cccc2ccccc12` [NPA,(+)]: 0.81 nM.

These data come from BindingDB's records for PubMed 8437101 (University of Pennsylvania, 1993).
